The source of these data is patent publication US4421754A, “Syndonimine derivatives, process for production thereof, and use thereof” (Hidaka; Hiroyoshi, priority 1981, dated 1983).

Like-named read-outs stand apart in the source and are kept apart here.

Data set [1] deals with mesenteric artery. Briefly: relaxing activity against contraction by KCl, extracted rabbit blood vessels (mesenteric artery). The note with it: Oryctolagus cuniculus. How it is done:
(§1) (1) Activity on the extracted blood vessels of a rabbit
(§2) A rabbit with a body weight of 2 to 3 kg was bled to death, and the thoracic aorta, mesenteric artery, renal artery, basilar artery and portal vein were extracted. Helical stripe specimens of these blood vessels were prepared. The specimens were suspended in a Magnus vessel, and the relaxing activity of the compound A against contraction of the specimens by KCl was examined. […] It is seen therefore that the compound A differs in activity from nitroglycerin having a strong relaxing activity on the veins, and has a strong relaxing activity on arteries, for example the coronary artery, the renal artery, etc.
(§3) The inhibiting activity on human platelet aggregation and the relaxing activity on mesenteric artery (the artery being extracted from rabbits) of compounds B to G of the invention were also examined in the same way as in I, (1) and (2). The mesenteric artery relaxing activity was shown in terms of the concentration (μM) of each compound which was required to cause 50% of the maximum relaxation, and the platelet aggregation inhibiting activity, in terms of the concentration (μM) of each compound which was required to inhibit aggregation to an extent of 50%. The platelet aggregation inhibiting activities of these compounds agreed relatively well with their artery relaxing activities

Data set [2] concerns human platelet. The experiment in a line: inhibition of human platelet aggregation in PRP. The format is cell-based.
Source text: (2) Activity on human platelet
PRP (platelet-rich plasma) was centrifugally separated from human blood to which sodium citrate had been added, and used as a sample. Collagen, adrenaline and adenosine diphosphate were used as substances causing platelet aggregation. The inhibitory effect of the compound A against platelet aggregation included by these substances was examined.
as §3

For data set [3], the system named is portal vein. Briefly: relaxing activity against contraction by KCl, extracted rabbit blood vessels (portal vein). The note with it: Oryctolagus cuniculus, helical stripe specimens, read-out: ED50 (relaxing activity against KCl contraction). How it is done: as §1, §2
For data set [4], the system named is basilar artery. Briefly: relaxing activity against contraction by KCl, extracted rabbit blood vessels (basilar artery). The note with it: Oryctolagus cuniculus, helical stripe specimens, read-out: ED50 (relaxing activity against KCl contraction). As for the experimental part: as §1, §2
Data set [5] relates to coronary artery. Briefly: relaxing activity against contraction by KCl, extracted rabbit blood vessels (coronary artery). The note with it: Oryctolagus cuniculus, helical stripe specimens, read-out: ED50 (relaxing activity against KCl contraction). How it is done:
as §1, §2

Data set [6] concerns thoracic aorta. Briefly: relaxing activity against contraction by KCl, extracted rabbit blood vessels (thoracic aorta). The note with it: Oryctolagus cuniculus, helical stripe specimens, read-out: ED50 (relaxing activity against KCl contraction). How it is done: as §1, §2
The test system of data set [7] is renal artery. Briefly: relaxing activity against contraction by KCl, extracted rabbit blood vessels (renal artery). The note with it: Oryctolagus cuniculus, helical stripe specimens, read-out: ED50 (relaxing activity against KCl contraction). How it is done:
as §1, §2

Data set [8] is described as follows: activity on the respiration, blood pressure, heart rate and blood flow rate of a dog. The format is in vivo, dog (male Beagle). The note with it: intravenous, pentobarbital anesthesia. How it is done: (3) Activity on the respiration, blood pressure, heart rate and blood flow rate of a dog.
The test was carried out under pentobarbital anesthesia using a male Beagle dog having a body weight of about 10 kg. The respiration was measured by means of a pneumotachograph; the blood pressure, by inserting a cannula into the femoral artery; the heart rate, by a cardiotachometer; and the rate of blood flow, by means of an electromagnetic blood flow meter by mounting a measuring probe on the vertebral artery and the femoral artery.
The present compound A was intraveneously administered as a solution in physiological saline.

A short description of data set [9]: acute toxicity test. The note with it: mouse, in vivo. As for the experimental part: An acute toxicity test was carried out by using male dd-strain mice (body weight 16 to 20 g).
The mark [10] stands for this setting: Table 1, artery extracted from rabbits, same way as in I (1), read-out: Mesenteric artery relaxing activity (concentration required to cause 50% of the maximum relaxation).
Setting [11] is: Table 1, human platelets, inducing substance not stated, read-out: Platelet aggregation inhibiting activity (concentration required to inhibit aggregation to an extent of 50%).

On to `N=c1c[n+](N2CCN(CCCCCCC(=O)c3ccccc3)CC2)[n-]o1` [compound E, 3-[4-(6-benzoylhexyl)piperazin-1-yl]sydnonimine], for which the EC50 in data set [1] (setting [10]) was found to be 120 nM. Moreover, in data set [2] (setting [11]), the IC50 amounted to 940 nM.
On to `N=c1c[n+](N2CCN(CCCCC(=O)c3ccccc3)CC2)[n-]o1` [compound A, 3-[4-(4-Benzoylbutyl)piperazin-1-yl]sydnonimine], for which the EC50 in data set [3] was found to be 4000 nM; in data set [4] it was 1300 nM; in [5], 200 nM; in data set [1] (mesenteric artery, KCl contraction, helical stripe specimens, read-out: ED50 (relaxing activity against KCl contraction)), 200 nM; in [6] it was 200 nM; in data set [7], 100 nM. Moreover, the IC50 is 1500 nM in [2] (induced by adenosine diphosphate, human PRP, read-out: concentration which achieved a 50% inhibition of the platelet aggregation); 800 nM in [2] (induced by adrenaline, human PRP, read-out: concentration which achieved a 50% inhibition of the platelet aggregation); 3400 nM in [2] (induced by collagen, human PRP, read-out: concentration which achieved a 50% inhibition of the platelet aggregation). In [8] (10 μg/kg), the “effect on respiration, blood pressure, heart rate and blood flow” value is recorded as “No appreciable effect was seen”. Moreover, the blood pressure result in data set [8] (100 μg/kg) was “slight degrees of a fall in blood pressure”; in data set [8] (500 μg/kg) it was “a transient fall in blood pressure and a subsequent lasting fall in blood pressure”. The “force of the pulse” value in data set [8] (100 μg/kg) is listed as “a decrease in the force of the pulse”. In [8] (vertebral artery and femoral artery), the “rate of blood flow” value was “tended to increase at the central part as compared with the peripheral part”. Moreover, the LD50 in [9] (sc, subcutaneous administration) was 350 mg/kg; in data set [9] (intravenous administration), 91 mg/kg; in data set [9] (oral administration) it was 750 mg/kg.
Regarding `CC(C)CC(CCCN1CCN([n+]2cc(=N)o[n-]2)CC1)C(=O)c1ccccc1` (centres unmarked) [compound G, 3-[4-(4-benzoyl-6-methylheptyl)piperazin-1-yl]-sydnonimine], the EC50 in data set [1] (setting [10]) was 1300 nM. For the same compound, the IC50 in data set [2] (setting [11]) was 11000 nM.
Taken in the same sequence, the figures for `N=c1c[n+](N2CCN(CCCC(=O)c3ccccc3)CC2)[n-]o1` [compound C, 3-[4-(3-benzoylpropyl)piperazin-1-yl]sydnonimine] were 2300 nM and 5400 nM.
As to `N=c1c[n+](N2CCN(CC(=O)c3ccccc3)CC2)[n-]o1` [compound B, 3-[4-(benzoylmethyl)piperazin-1-yl]sydnonimine], in data set [1] (setting [10]), the EC50 stood at 160 nM. For the same compound, in data set [2] (setting [11]), the IC50 was found to be 140 nM.
For the compound `N=c1c[n+](N2CCN(CCCCCC(=O)c3ccccc3)CC2)[n-]o1` [compound D, 3-[4-(5-benzoylpentyl)piperazin-1-yl]sydnonimine], the EC50 in data set [1] (setting [10]) was found to be 3000 nM. Also, the IC50 in [2] (setting [11]) amounted to 6300 nM.
As to `N=c1c[n+](N2CCN(CCCCCCCCC(=O)c3ccccc3)CC2)[n-]o1` [compound F, 3-[4-(8-benzoyloctyl)piperazin-1-yl]sydnonimine], the EC50 in [1] (setting [10]) came out at 58 nM. For the same compound, in [2] (setting [11]), the IC50 came out at 28 nM.
